Results published in patent publication US20060251576A1, “Methods for measuring cholesterol metabolism and transport” (The Regents of the University of California, priority 2005, published 2006).

Tested on: reverse cholesterol transport (RCT)
Experiment: Global RCT parameter in rats: Ra cholesterol combined with recovery of administered labeled cholesterol in fecal neutral sterols or bile acids
Assay type: in vivo
Details: for "global parameter" of RCT into neutral sterols (product of Ra cholesterol and excretion of plasma cholesterol): rats fed the agent for 7 days
Method: A refinement of the approach outlined in Example 1, involves calculating the Ra of plasma cholesterol and combining that measurement with the fractional excretion of administered cholesterol as described in Example 4. The recovery of plasma cholesterol in stool is defined as the proportion of administered labeled cholesterol that was excreted in fecal neutral sterols. It is expressed as % label recovered from day 1-4 following infusion. It is calculated from: % ^13C enrichment in fecal neutral sterols, the mg/day excretion of neutral sterols and divided by total mg 1 ^13C cholesterol administered. [formula] The same calculation is made for the recovery of plasma cholesterol into bile acids excreted in stool. Rats were treated with common and investigational cholesterol lowering agents, cholesterolamine, ezetimibe, LXR agonist (TO-901317). The Ra of cholesterol is calculated as described, the recovery of administered cholesterol in fecal sterol or bile acids are calculated as described.

| SMILES | excretion of plasma cholesterol into neutral sterols and the global parameter of RCT (rats) | "global parameter" of RCT into neutral sterols (product of Ra cholesterol and excretion of plasma cholesterol) | plasma flux to neutral sterols (effect on RCT) (rats, FIG. 12) |
| --- | --- | --- | --- |
| O=S(=O)(c1ccccc1)N(CC(F)(F)F)c1ccc(C(O)(C(F)(F)F)C(F)(F)F)cc1 [TO-901317] | observed increase in RCT | significant increase observed |  |
| O=C1[C@H](CC[C@H](O)c2ccc(F)cc2)[C@@H](c2ccc(O)cc2)N1c1ccc(F)cc1 [ezetimibe] |  | significant increase observed | increase in plasma flux to neutral sterols |
